Here are results for seven compounds from patent US10703748B2, “Diazanaphthalen-3-yl carboxamides and preparation and use thereof” (Samumed, LLC, priority 2017, dated 2020).

Experiment [1] addresses DYRK1A kinase (Homo sapiens, UniProt Q13627). The experiment is described as follows: DYRK1A kinase activity (Ser/Thr 18 peptide Z-lyte FRET assay).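 Also: kinase activity read as coumarin/fluorescein emission ratio after development step, with unphosphorylated and phosphorylated peptide forms setting 0% and 100% controls, values from dose-response curves.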 The class given is biochemical. Conditions: recombinant DYRK1A, 30 μM ATP, one hour at room temperature.
The target of experiment [2] is GSK3β kinase (Homo sapiens, UniProt P49841). The experiment is described as follows: GSK3β kinase activity (Ser/Thr 09 peptide Z-lyte FRET assay). The class given is biochemical. Conditions: recombinant kinase, 46 μM ATP, one hour at room temperature; read-out: EC50.
Experiment [3] concerns Tau phosphorylation at Ser396 (pSer396). The experiment is described as follows: Tau phosphorylation at Ser396 (pSer396) in SH-SY5Y cells, ELISA / western blot.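 Also: decrease in pSer396 Tau measured in lysates of treated cells by colorimetric ELISA or chemiluminescent western blot, same pSer396 antibody for both.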 In kind it is cell-based, human. As to conditions: Homo sapiens; SH-SY5Y cells, overnight (16-18 h); read-out: pSer396 Tau EC50.
Experimental: Two days before treatment, cells were seeded onto 96 well plates at 5×10^4 cells/well.
The above synthesized compounds were screened using the cell assay procedure to assess decrease Tau phosphorylation at Ser396 (pSer396) described below.
Cells were lysed with RIPA buffer complemented with phosphatase and protease inhibitors then lysates were spun down at 12,000 g for 10 min to remove any cellular debris.
Experiment [4] has as its system Tau phosphorylation at Threonine 212 (pT212Tau). The experiment is described as follows: Tau phosphorylation at Threonine 212 (pT212Tau) in Dyrk1a- and MAPT-overexpressing HEK293T cells, sandwich ELISA. The class given is cell-based. As to conditions: Homo sapiens, HEK-293T, overnight (16-18 hours), read-out: Thr212 EC50. The procedure:
HEK293T cells (transfectable human embryonic kidney cells) were cultured in DMEM medium supplemented with 10% FBS and 1% penicillin/streptomycin.
HEK293T cells were transiently transfected to overexpress Dyrk1a and microtubule-associated protein Tau (MAPT) genes. Specifically, Dyrk1a and MAPT expression vectors were obtained from OriGene (10 μg of each, catalog numbers SC314641 and RC216166, respectively). A MaxiPrep for each vector was ordered and received from GeneWiz, yielding 874.5 μg (resuspended at […]) of the Dyrk1a expression vector, and 898 μg (resuspended at […]) of MAPT.
HEK293T cells were seeded at 1.0×10^7 cells in 10 mL per T-75 flask. […] One T-75 flask was designated as a no-vector negative control for pT212Tau signal.
After 4-6 hours of incubation in transfection reagents, transiently double transfected HEK293T cells were dissociated by treatment with trypsin EDTA and seeded at 1.0×10^5 cells in 100 μL per well in 96-well plates. No-vector negative controls were seeded in separate 96-well plates to avoid the risk of the negative control cells picking up the overexpression during incubation. At the time of seeding, DMSO-resuspended Samumed compounds were dispensed to eight wells as a serial dilution from 10 μM to 4.6 nM final concentration in medium, or at 0.12 μM to 0.05 nM with particularly potent compounds. Cells were exposed to the representative compounds overnight (16-18 hours) in a 37° C. incubator.
96-Well flat-bottom plates were coated with 100 μL per well anti-HT7 capture antibody (ThermoFisher, MN1000) diluted 1:300 in 1×PBS at 4° C. overnight, with shaking at 500 rpm. After overnight capture antibody incubation, coated plates were washed four times with 200 μL per well of 1×PBS-0.05% Tween-20, and blocked for 1 hour with 200 μL per well of 1×PBS with 2% BSA. After 1 hour of blocking, plates were washed four times with 200 μL per well of 1×PBS-0.05% Tween-20, prior to sample loading.
Wells of compound-treated cells were visually checked for cell death before being washed with 200 μL per well of 1×DPBS supplemented with phosphatase inhibitor diluted to 1×. Cells were then lysed with 100 μL 1×RIPA buffer supplemented with phosphatase and protease inhibitors (each diluted to a final 1×). Cells were shaken at 500 rpm, 4° C. for 20 minutes prior to further lysis (via manual scraping) and transfer to 96-well V-bottom collection plates (Corning, 3894). V-bottom plates were centrifuged at 4000 rpm, 4° C., for 15 minutes, and 100 μL of lysate supernatant from each well was directly tested for pT212Tau signal by sandwich ELISA.
Specifically, lysates were directly transferred to the coated and blocked ELISA plates for 2 hours before plates were washed four times with 200 μL per well of 1×PBS-0.05% Tween-20 and probed with 100 μL per well of anti-pT212Tau antibody (ThermoFisher, 44-740G) diluted 1:200 in 1×PBS for 2 hours. Plates were washed four times with 200 μL per well of 1×PBS-0.05% Tween-20 and probed with 100 μL per well of anti-rabbit/HRP conjugate (Cell Signaling Technology, 7074S) diluted 1:600 in 1×PBS for 1 hour. Plates were washed four times with 200 μL per well of 1×PBS-0.05% Tween-20 before 100 μL per well of TMB substrate solution (ThermoFisher, N301) was added. When colour development was observed, 100 μL per well of stop solution (ThermoFisher, N600) was added, and colorimetric detection of pT212Tau signal was read at 450 nm with the Cytation 3 Cell Imaging Multi-Mode Reader (BioTek). The signal was used to plot, draw the curves fitting, and determine the EC50 values in GraphPad Prism for tested representative compounds.

Experiment [5] deals with secreted cytokines TNFα, IL-6 and KC-GRO. The experiment is described as follows: Secreted cytokines in Lipopolysaccharide-stimulated BV-2 cells (Table 9 does not say which cytokine). In kind it is cell-based, mouse. Conditions: Mus musculus, BV-2, 5 h; read-out: EC50.
In experiment [6] the test system is SW480 colon carcinoma cells. The experiment is described as follows: Cell viability assay (CellTiter-Glo). Conditions: Homo sapiens; for EC50: SW480, 96 h; for inhibition at 10 µM: SW480, read-out: percent inhibition at 10 μM.
Experimental: Representative compounds were screened using the assay procedure to assess the effect on cell viability as described below.
SW480 colon carcinoma cells were transduced with a lentiviral vector expressing luciferase with a human Sp5 promoter consisting of a sequence of eight TCF/LEF binding sites. […] These stably transduced SW480 cells were expanded in cell culture and used for all further screening activities. Each compound was dissolved in DMSO as a 10 mM stock and used to prepare compound source plates.
For the Cell Viability Assays, the cells were plated at 2,000 cells/well in 384-well plates with a DMEM medium containing 1% fetal bovine serum, and 1% Penicillin-Streptomycin and incubated for four days hours at 37° C. and 5% CO2. Eight replicates of DMSO-treated cells served as controls and cells treated with compound were performed in duplicate.
After incubation, 10 μL of CellTiter-Glo (Promega) was added to each well allowed to incubate for approximately 12 minutes. This reagent “results in cell lysis and generation of a luminescent signal proportional to the amount of ATP present. The amount of ATP is directly proportional to the number of cells present in culture, in agreement with previous reports. The CellTiter-Glo Assay generates a “glow-type” luminescent signal, produced by the luciferase reaction (Promega.com)”.
Dose-response curves were generated and EC50 concentration values were calculated using non-linear regression curve fit in the GraphPad Prism (San Diego, Calif.) or Dotmatics' Studies Software (Bishops Stortford, UK).
Experiment [7] concerns Wnt-responsive Sp5-Luc reporter in SW480 colon carcinoma cells. The experiment is described as follows: Screening assay for Wnt activity (Sp5-Luc reporter gene assay). As to conditions: Homo sapiens; for EC50: SW480.
In experiment [8] the test system is IL-6. The experiment is described as follows: IL-6 inhibition in LPS-stimulated human peripheral blood mononuclear cells (HTRF). As to conditions: Homo sapiens, PBMC; for EC50: 22 h; for inhibition at 10 µM: read-out: percentage in parentheses after EC50 >10.
Experiment [9] has as its system α-smooth muscle actin (aSMA) positive LL29 cells. The experiment is described as follows: Inhibition of the fibrotic process: αSMA staining in TGF-β1 treated LL29 fibroblasts from IPF patients. Conditions: Homo sapiens, Fibroblast; for EC50: 96 h; for inhibition at 10 µM: read-out: percentage in parentheses after EC50 >10.

Chain of GSK3β kinase (P49841 whole entry): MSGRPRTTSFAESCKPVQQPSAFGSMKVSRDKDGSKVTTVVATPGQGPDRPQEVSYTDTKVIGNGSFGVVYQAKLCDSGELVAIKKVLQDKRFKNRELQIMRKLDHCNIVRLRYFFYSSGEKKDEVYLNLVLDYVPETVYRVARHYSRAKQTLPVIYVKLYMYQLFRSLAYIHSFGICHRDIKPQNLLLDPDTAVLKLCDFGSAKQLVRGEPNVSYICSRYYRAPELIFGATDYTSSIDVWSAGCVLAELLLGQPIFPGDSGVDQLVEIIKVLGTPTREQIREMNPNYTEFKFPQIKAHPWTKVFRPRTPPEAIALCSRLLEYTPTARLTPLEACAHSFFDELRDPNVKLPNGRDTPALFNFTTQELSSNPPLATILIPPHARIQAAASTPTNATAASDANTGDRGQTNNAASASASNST

As for `CN1CCN(c2cccc(C(=O)Nc3cc4cc(-c5cnn(C)c5)ccc4nn3)c2)CC1` [Compound 1953, N-(6-(1-Methyl-1H-pyrazol-4-yl)cinnolin-3-yl)-3-(4-methylpiperazin-1-yl) benzamide], the EC50 in [1] was 317 nM; in [2], 2620 nM; in experiment [3], above 10000 nM; in experiment [4], above 10000 nM; in [5], 2900 nM; in [6], above 10000 nM. In addition, the EC50 in experiment [7], in [8] and in experiment [9] was above 10000 nM in each case. The inhibition at 10 µM in [6] was found to be 7.8%; in experiment [7] (SW480, read-out: percent inhibition at 10 μM), 9.7%; in experiment [8], 12.8%; in [9], 55.5%.
On to `O=C(Nc1cc2cc(-c3cncs3)ncc2cn1)C1CCN(C2COC2)CC1` [Compound 4244, 1-(Oxetan-3-yl)-N-(6-(thiazol-5-yl)-2,7-naphthyridin-3-yl)piperidine-4-carboxamide], for which the EC50 in experiment [1] is 4 nM; in experiment [2], 30 nM; in experiment [3] it was 284 nM; in [4], 157 nM; in [5], above 10000 nM; in experiment [6], above 10000 nM. Besides, the EC50 in experiment [7] is 863 nM; in [8], above 10000 nM; in experiment [9], above 10000 nM. The inhibition at 10 µM is 19.9% in experiment [6], 6.9% in [8] and 4.9% in [9].
For the compound `CC(C)CN1CCC(C(=O)Nc2cc3cc(-c4cnn(C)c4)ncc3cn2)CC1` [Compound 3643, 1-Isobutyl-N-(6-(1-methyl-1H-pyrazol-4-yl)-2,7-naphthyridin-3-yl) piperidine-4-carboxamide], the EC50 in experiment [1] was 10 nM; in experiment [2], 31 nM; in experiment [3] it was 102 nM; in experiment [4] it was 30 nM; in experiment [5], 3900 nM; in experiment [6], 6990 nM. For the same compound, the values for the EC50 in experiment [7], in [8] and in experiment [9] were 73 nM, above 10000 nM and 2500 nM, respectively. Besides, in [8], the inhibition at 10 µM is 9.8%.
Take `Cn1cc(-c2cc3cc(NC(=O)c4ccnc(N5CCNCC5)c4)ncc3cn2)cn1` [Compound 3773, N-(6-(1-Methyl-1H-pyrazol-4-yl)-2,7-naphthyridin-3-yl)-2-(piperazin-1-yl) isonicotinamide]: the EC50 in experiment [1] is 16 nM; in experiment [2] it was 852 nM; in experiment [3], above 10000 nM; in experiment [4], 268 nM; in [5] it was 305 nM; in experiment [6], 5640 nM. The EC50 in experiment [7] was 2820 nM; in experiment [8], above 10000 nM; in experiment [9] it was 3320 nM. In [8], the inhibition at 10 µM worked out at 1.1%.
Turning to `Cc1ncc(-c2ccc3cnc(NC(=O)C4CCN(C(=O)CN5CCCC5)CC4)cc3n2)s1` [Compound 4561, N-(2-(2-Methylthiazol-5-yl)-1,6-naphthyridin-7-yl)-1-(2-(pyrrolidin-1-yl)acetyl)piperidine-4-carboxamide], the EC50 is 7 nM in experiment [1]; 182 nM in experiment [2]; 2100 nM in experiment [3]; 306 nM in [4]; 129 nM in experiment [5]; above 10000 nM in experiment [6]. For the same compound, the EC50 was determined as 953 nM in [7], 4560 nM in experiment [8] and 664 nM in experiment [9]. Further, the inhibition at 10 µM in experiment [6] was found to be 49.5%.
Consider `Cn1cc(-c2cc3cc(NC(=O)C4CCNCC4)ncc3cn2)cn1` [Compound 3638, N-(6-(1-Methyl-1H-pyrazol-4-yl)-2,7-naphthyridin-3-yl)piperidine-4-carboxamide], for which the EC50 was determined as 6 nM in experiment [1]; 27 nM in experiment [2]; 1500 nM in experiment [3]; 112 nM in experiment [4]; 1400 nM in experiment [5]; 6920 nM in [6]. Moreover, the half-maximal effective concentration (EC50) in experiment [7] was 593 nM; in experiment [8], above 10000 nM; in [9] it was above 10000 nM. For the same compound, the values for the inhibition at 10 µM in experiment [8] and in [9] were 6.3% and 34.9%, respectively.
On to `Cn1cc(-c2cc3cc(NC(=O)C4CCN(Cc5ncccn5)CC4)ncc3cn2)cn1` [Compound 3727, N-(6-(1-Methyl-1H-pyrazol-4-yl)-2,7-naphthyridin-3-yl)-1-(pyrimidin-2-ylmethyl)piperidine-4-carboxamide], for which the EC50 in experiment [1] is 4 nM; in [2] it was 18 nM; in experiment [3], 398 nM; in experiment [4], 15 nM; in [5], above 10000 nM; in experiment [6], 6660 nM. Moreover, the results for the concentration for a half-maximal effect (EC50) in experiment [7], in [8] and in experiment [9] were 426 nM, above 10000 nM and 149 nM, respectively. In addition, in [8], the inhibition at 10 µM was determined as 6.2%.
